Measurements taken from the NIST ThermoML archive (doi:10.1021/je700131z).
± gives the expanded uncertainty stated by the source.

Details: Crystal; visual observation

Normal melting temperature: 94.50 ± 1.1 °C
SMILES: OC[C@@H](O)[C@H](O)[C@@H](O)CO [xylitol]
